The test system of this assay is P. falciparum 3D7 growth, pLDH absorbance. Put plainly: P. falciparum 3D7 growth inhibition, dose response, strain 3D7 (AID 2305).

pIC50: −log10 of the molar value.

In turn, `CN(C)CCOc1cccc(NC(=O)Nc2ccc(-c3ccccc3)cc2)c1` gave a pIC50 of 6.06.

`OC(CNCc1ccccc1)c1cc(OCc2ccccc2)cc(OCc2ccccc2)c1` (stereo not drawn) had a negative logarithm of the IC50 (pIC50) of 6.00.

Consider `Fc1ccc(CN2CCN(c3ncnc4cc(-c5ccccc5)sc34)CC2)cc1`, for which the pIC50 is 5.99.

`N#Cc1ccc(N2CCN(Cc3ccc(-c4cccc(-c5nc6ccccc6[nH]5)c4)cc3)CC2)nc1` gave a pIC50 of 6.04.

For the compound `O=c1c(NCCCN(Cc2ccc(F)cc2)c2ccccn2)c(NCc2ccncc2)c1=O`, the pIC50 is 6.82.

As for `CCCNC(=O)C1CCN(C(c2ccc(Cl)cc2)c2ccc(Cl)cc2)CC1`, the pIC50 is 6.32.

In turn, `CN1CCC(NCc2ccc(-c3cccc(S(=O)(=O)NCC4CCCO4)c3)cc2)CC1` (stereo not drawn) gave a pIC50 of 6.03.

On to `Cc1cccc2[nH]c(-c3cccc(-c4ccc(CN5CCN(CCO)CC5)cc4)c3)nc12`, for which the pIC50 is 6.09.

In turn, `Cc1ccc(C2CCN(CCCCNC(=O)c3ccc(-c4ccc(C#N)cc4)cc3)CC2)c(O)c1` had a pIC50 of 6.54.

Compound `CCNc1cc(C(=O)N[C@@H](Cc2ccccc2)[C@H](O)CNC(C)CCCC(C)C)cc(N2CCCS2(=O)=O)c1` (stereo partly drawn) showed a pIC50 of 6.66.

`CC(C)(C)c1ccc(CNC(=O)c2ccc(-c3nc4ccc(C(C)(C)C)cc4[nH]3)cc2)cc1` showed a pIC50 of 6.08.

The compound `Cc1ccc2[nH]c(C3CCCNC3)c(-c3ccncc3)c2c1` (stereo not drawn) gave a pIC50 of 5.91.

In turn, `COC(=O)CCCCOc1c(OC)cc(Cc2cnc(N)nc2N)cc1OC` showed a pIC50 of 7.40.

In turn, `Cc1nc(Nc2ccc(F)cc2)nc(N2CCc3cc(O)ccc3C2C)c1C` (stereo not drawn) showed a pIC50 of 6.12.

The compound `Cc1c(CNCCCNc2nc3cscc3[nH]2)sc(C(F)F)c1Br` showed a negative logarithm of the IC50 (pIC50) of 6.03.

Compound `CC(Cc1ccc(OCCCCOc2ccccc2)cc1)NCCCc1nc2ccccc2[nH]1` (stereo not drawn) showed a pIC50 of 6.01.

`Cc1c(CNCCCNc2cc(=O)c3ccccc3[nH]2)sc(-c2ccco2)c1Br`: the pIC50 is 5.99.

`COc1ccc2nccc([C@@H](O)CN3CCC(NC[C@H](Cc4ccccc4)NC(=O)OC(C)(C)C)CC3)c2c1` had a negative logarithm of the IC50 (pIC50) of 6.64.

Turning to `CC(C)c1cccc(C(NC(=O)[C@H]2Cc3ccccc3CN2C(=O)c2cccc(N3CCOCC3)c2)C2CCCC2)c1` (stereo partly drawn), the pIC50 is 6.14.

In the case of `O=S(=O)(c1ccccc1C(F)(F)F)C1C[C@H]2CC[C@@H](C1)N2S(=O)(=O)c1ccc(Cl)c(C(F)(F)F)c1` (stereo partly drawn), the pIC50 was 6.15.

With `CCOc1ccc(C(C)NC(=O)C2COc3ccccc3O2)cc1OCC` (stereo not drawn), the negative-log IC50 (pIC50) was 6.05.

`C=C[C@]1(C)C[C@@H](OC(=O)NC(=O)CCCS(=O)(=O)c2nnc(C)s2)[C@]2(C)[C@H](C)CC[C@]3(CCC(=O)[C@H]32)[C@@H](C)[C@@H]1O` gave a pIC50 of 7.52.

In turn, `Cc1c(CNCCN2CCCCC2)c(C(=O)O)c(C)n1Cc1ccc(Cl)cc1` showed a pIC50 of 6.38.

As for `CCc1ccccc1N1CCN(CCCC(=O)c2ccc(NC(=O)c3ccc(Cl)cc3)cc2)CC1`, the pIC50 was 5.88.

`COCc1cc(C)nc2sc(C(=O)Nc3cc(C(C)(C)C)ccc3O)c(N)c12` gave a pIC50 of 6.15.

The compound `O=C(/C=C/c1ccccc1Cl)NC1CCC(CN2CCC(c3c[nH]c4ccncc34)CC2)CC1` (stereo not drawn) showed a pIC50 of 6.48.

With `Nc1nc(N)c2nc(C3CC=CCC3)c(N)nc2n1` (stereo not drawn), the pIC50 is 6.80.

For the compound `COc1ccc(CNc2nc(NCc3ccc(C(F)(F)F)cc3)c3cc(OC)c(OC)cc3n2)cc1OC`, the pIC50 is 6.68.

`CC(C)NCc1cccc(-c2ccc(NS(=O)(=O)c3cccc4cccnc34)cc2)c1`: the negative logarithm of the IC50 (pIC50) was 5.97.

As for `c1ccc(C(OCCC2CCN(Cc3cccnc3)CC2)c2ccccc2)cc1`, the pIC50 was 6.09.

In turn, `Cc1nc2ccc(NC(=O)c3cc(S(=O)(=O)N(C)C)ccc3Cl)cc2s1` gave a pIC50 of 6.09.

`COc1cccc(-c2cnc(-c3ccncc3)nc2C2CCN(Cc3ccc(NC(C)=O)cc3)CC2)c1`: the pIC50 is 5.82.

Turning to `O=C(N[C@@H](Cc1ccccc1)C(=O)NC1CCCc2ccccc21)c1ccc(O)c(-c2cccc(C(F)(F)F)c2)c1` (stereo partly drawn), the pIC50 was 6.00.

For `Cc1ccc(F)cc1S(=O)(=O)N1CCCCC(c2ccc(C(F)(F)F)cc2)=N1`, the pIC50 is 6.03.

For the compound `O=C(/C=C/c1ccc(Cl)c(Cl)c1)NCCCCCN1CCN(C(=O)Nc2ccc(OC(F)F)cc2)CC1`, the pIC50 was 6.02.

Compound `Cc1cc(OCc2ccccc2)c(OCc2ccccc2)cc1C(O)CN(C)Cc1ccccc1` (stereo not drawn) showed a pIC50 of 6.09.

Compound `COc1ccc2c(NN=CC=Cc3ccccc3)cc(C)nc2c1` showed a pIC50 of 6.08.

As for `Cc1ccc(Nc2cc(C)nn2-c2nc(C)cc(=O)[nH]2)cc1`, the pIC50 was 6.07.

The compound `O=[N+]([O-])c1cccc(CNC2CCN(Cc3ccc4ccccc4c3)CC2)c1` showed a pIC50 of 6.12.

In turn, `Cc1cccc(C(=O)Nc2ccnc(N3CCC(N(C)Cc4cccc(C#N)c4)CC3)c2)c1` gave a pIC50 of 5.96.

`Cc1nc(N)nc(N)c1OCc1cccc2ccccc12` gave a pIC50 of 7.15.

Compound `CC1c2cccc(O)c2CCN1CCc1ccc(Cl)c(Cl)c1` (stereo not drawn) showed a pIC50 of 6.85.

`CC(C)C[C@H](NC(=O)c1cc2cc(OCCN3CCNCC3)ccc2o1)C(=O)NC1CC[C@@H](C)N(C(=O)Nc2ccc(Cl)cc2)CC1=O` (stereo partly drawn) showed a pIC50 of 6.42.

`Cc1[nH]c(C)c(-c2ccc(C(=O)c3ccccc3)cc2)c(=O)c1Br` gave a pIC50 of 6.11.

`CN(CCON1C(N)=NC(N)=NC1(C)C)c1ccccc1` gave a pIC50 of 7.70.

As to `Cc1cc(C)cc(OCC(O)CN(Cc2cc(Cl)cc(Cl)c2)C(=O)Nc2ccc([N+](=O)[O-])cc2)c1` (stereo not drawn), the pIC50 was 6.10.

Take `O=C(CN1CCC2(CCC1=O)CC(=O)c1ccccc1O2)NCCN1CCOCC1` (stereo not drawn): the pIC50 was 6.66.

In the case of `COc1ccc(CNC2CCN(C)CC2)cc1-c1ccc(S(=O)(=O)NCc2ccccc2)c(F)c1`, the pIC50 was 6.10.

In turn, `Cc1cccc2[nH]c(-c3ccc(-c4cccc(CNCc5ccccc5)c4)s3)nc12` had a negative-log IC50 (pIC50) of 6.13.

Compound `COc1ccc(C(C(=O)NC2CCN(C[C@H](O)c3ccnc4ccc(OC)cc34)CC2)N2CCc3ccccc3C2)cc1` (stereo partly drawn) showed a pIC50 of 6.15.

For `CN1CC(c2ccc(Cl)c(Cl)c2)OC1=N` (stereo not drawn), the pIC50 is 6.55.

Turning to `COc1ccc(C=Cc2cc(N)c3ccccc3n2)cc1Br`, the pIC50 was 6.15.

For `COc1cccc(C(O)CNc2ccnc(Nc3cccc(-c4csc(C)n4)c3)n2)c1` (stereo not drawn), the pIC50 was 6.10.

For `COc1cc2cc(-c3nc4ccccc4[nH]3)c(N)nc2cc1OC`, the pIC50 is 6.77.

As to `CN1CCC(c2ccc(NC(=O)c3ccc(-c4cccc(C(F)(F)F)c4)o3)cc2)CC1`, the pIC50 is 5.95.

For `O=C(/C=C/c1ccc(Cl)c(Cl)c1)NCCCCCN1CCC(NC(=O)Nc2ccc(Oc3ccccc3)cc2)C1` (stereo not drawn), the pIC50 is 6.23.

Regarding `Cc1cccc2[nH]c(-c3cccc(-c4ccc(CNCc5cnn(-c6ccccc6)n5)cc4)c3)nc12`, the pIC50 is 6.04.

The compound `COc1cccc2c(NN=Cc3ccc(Cl)cc3)ccnc12` gave a pIC50 of 6.09.

As to `COc1cccc(-c2nn(C)c3sc(C(=O)Nc4cccnc4)cc23)c1`, the pIC50 was 6.02.

Consider `O=C(NCc1ccc(Cl)cc1)c1ccc(CN2CCCN(Cc3cccc(O)c3)CC2)cc1`, for which the pIC50 is 5.93.

Consider `Cc1[nH]c(C)c(-c2ccc(Oc3cccc(Cl)c3)cc2)c(=O)c1Br`, for which the negative logarithm of the IC50 (pIC50) was 7.52.

In turn, `Cc1nc2ccc3ccc(CNc4ccc(C#N)cc4)cc3c2c(=O)[nH]1` showed a pIC50 of 5.84.

`O=C(Nc1ccc(Cl)cc1F)N[C@H]1CCN(CCCCCNC(=O)[C@@H]2C[C@H]2c2ccc(Cl)c(Cl)c2)C1` gave a pIC50 of 5.96.

In turn, `NCC(=O)NC12CC3CC(CC(C3)C1)C2` showed a pIC50 of 5.92.

As to `Cc1cc(-c2c[nH]c3ncc(-c4cccc5ncccc45)cc23)ccc1C(=O)O`, the pIC50 was 6.12.

Regarding `CN(C)C(=O)CN1CCN(c2ncnc(N3CCc4c([nH]c5ccccc45)[C@@H]3c3ccc4c(c3)CCO4)n2)CC1`, the pIC50 was 6.06.

In turn, `CN1CCCN(Cc2cccc(-c3cccc(NS(=O)(=O)c4cccc5cccnc45)c3)c2)CC1` showed a pIC50 of 6.12.

The compound `CC(C)CNC(=O)CN1C(=O)C(c2ccccc2)(c2ccccc2)N=C1N` showed a pIC50 of 6.09.

The compound `COc1ccc(-c2cccc(NC(=O)c3cccc(C#N)c3)c2)cc1CN(C)CCO` had a pIC50 of 6.09.

For `CCCCCCCN(Cc1ccc(OC(C)(C)C(=O)OCC)cc1)C(=O)Nc1ccccc1OC(F)(F)F`, the pIC50 was 6.01.

Compound `NCc1ccc(CNCc2cccc(-c3cccc(-c4nc5ccc(F)cc5[nH]4)c3)c2)cc1` gave a pIC50 of 6.51.

`Cc1ccc(Cn2nc(Cl)c(N3CCNCC3)cc2=O)cc1NC(=O)Nc1ccc(-c2ccccc2)cc1` showed a negative-log IC50 (pIC50) of 6.17.

Turning to `Cc1c(F)cc(C(=O)NC2CC2)cc1-c1ccc2c(cnn2S(=O)(=O)c2ccc(C#N)cc2)c1`, the pIC50 was 7.00.

`O=C(O)CCCN1CCCC(=C(c2ccccc2)c2ccccc2)C1` showed a pIC50 of 5.92.

Compound `CN(C)CCN(C)Cc1ccc(-c2ccc(NC(=O)c3cccc(Cl)c3)cc2)cc1` showed a pIC50 of 5.94.

The compound `Oc1cc2c(cc1CN1CCN(Cc3ccccc3F)CC1)CCC2` showed a negative-log IC50 (pIC50) of 6.12.

With `COc1ccc(OCC(=O)Nc2cc(-c3nc4ccccc4[nH]3)ccc2Cl)cc1`, the pIC50 is 6.05.

Compound `O=C(NC1CCCCN(Cc2ccccc2O)C1)c1ccc(-c2ccccc2)cc1` (stereo not drawn) had a pIC50 of 6.12.

`COc1c(F)cc(CC(C)NCC(O)c2cccc(Cl)c2)cc1F` (stereo not drawn) had a pIC50 of 5.94.

Compound `O=C(Nc1ccc(-c2cccc(-c3nc4ccccc4[nH]3)c2)cc1)Nc1ccc(Cl)c(Cl)c1` showed a pIC50 of 6.34.

As for `CCOC(=O)c1ccc(-n2c(C)cc(C=C3SC(=Nc4ccccc4)N(C4CCCC4)C3=O)c2C)cc1`, the pIC50 was 5.93.

`CCOc1ccc2ccccc2c1C(=O)Nc1cc(C)nn1-c1nc(C)cc(=O)[nH]1` had a pIC50 of 6.00.

`COc1cc(OC)c(NC(=O)COc2ccc(C)cc2)cc1Cl` gave a pIC50 of 6.16.

Turning to `c1cc(CN2CCN(c3ccncc3)CC2)cc(-c2ccc(-c3nc4ccccc4[nH]3)s2)c1`, the pIC50 is 6.82.

`CC(C)(Oc1ccc(Cl)cc1)C(=O)NCCC1CCN(CCCCCNC(=O)/C=C/c2ccc(Cl)c(Cl)c2)CC1` had a pIC50 of 6.03.

As to `CC[C@H](NC(=O)c1ccc(NC(=O)OC(C)(C)C)cc1)C(=O)N[C@@H](CO)C(=O)NCCCCc1ccccc1`, the negative-log IC50 (pIC50) is 6.08.

`CC1(C)N=C(N)N=C(N)N1OCc1nc(N)nc(Nc2ccccc2)n1` had a pIC50 of 6.57.

In turn, `O=C(Nc1ccc(OC2CCN(Cc3ccc(F)cc3)CC2)c(Cl)c1)c1ccccc1` gave a pIC50 of 6.10.

Broadly, the pIC50 is −log10 of the IC50, conventionally taken in molar units. Low values mean a large IC50, high ones a small IC50.

The values above are taken from PubChem BioAssay AID2305 (GlaxoSmithKline (GSK), 2010).
